Paper PMC6624297 (Cell Death & Disease, 2019)

Assays:
LO2 cell line = test: Selectivity index against LO2; format: cell-based; settings: SI = CC50/IC50
FVB mice = test: Toxicity test in FVB mice; format: in vivo; settings: 3 weeks
Method: Blood was collected from euthanized mice under isoflurane-induced deep anesthesia by cardiac puncture. After allowing blood coagulation at 4 °C, serum was collected by centrifugation at 3000 rpm for 10 min at 4 °C. Analysis of the level of ALT, AST, Glu and CRE in the serum was performed using a veterinary hematology analyzer (Fuji DRI-Chem 3500 s, Fujifilm, Tokyo, Japan) according to the manufacturer’s provided protocols. The histopathological changes in liver, lung, brain, and kidney were evaluated by using HE-stained section of the tissues (This part of the results is in the supplementary document).
Tissues were fixed in 10% neutral-buffered formalin for 24 h, embedded in paraffin, cut into 4-μm-thick sections, deparaffinized with xylene and processed with a graded ethanol series. Next, the sections were stained with HE and were observed using Eclipse Ts2 microscope (Nikon).

[1] = HPLC analysis of stability in cell culture medium; format: physicochemical
Method: The HPLC system consisted of e2695 Separations Module pump coupled to a 2489 UV/Visible detector (Waters Corp., Milford, MA, USA). Chromatograms was achieved on a Waters BDS C18 column (200 mm × 4.6 mm, 5 um). Detection was performed at a wavelength of 260 nm at 37 °C. The mobile phase consisted of 0.1% phosphoric acid water /methanol (50/50, v/v) at a flow rate of 1.0 mL/min. A10 µL of sample was injected. The results are loaded in the supplemental file.

H460 cells = test: Annexin V/PI staining flow cytometry, H460; format: cell-based, human; settings: 24 h
Method: The density of the A549 cells and H460 in the logarithmic growth phase was adjusted to 1 × 10^6 cells/mL, and a total of 1 mL of cell suspension and 1 mL of L14e at different concentrations were added into each well with the final compound L14e concentration in each group as 0, 0.5, 1.0, and 1.5 μM. Details are given in Supplementary Materials and Methods.
The density of the A549 cells and H460 in the logarithmic growth phase was adjusted to 1 × 10^6 cells/mL, and then the cell suspension was seeded into a 6-well plate (Becton Dickinson and Company, USA). A total of 1 mL of cell suspension and 1 mL of compound L14e at different concentrations were added into each well with the final compound L14e concentration in each group as 0 μM, 0.5 μM, 1.0 μM, and 1.5μM. After cells were incubated for 24 h at 37 °C, 1 mL of cell suspension per well was collected and centrifuged at 1000 r/min for 10 min at 4°C, and the supernatant was removed. Then, 1 mL of cold PBS was added to the cell pellet, and was shaken lightly to re-suspend the cells. The cells were centrifuged at 1000 r/min at 4 °C for 10 min, and the supernatant was removed. These steps were repeated twice. The cells were re-suspended in 150µL of PBS, 10 µL of fluorescein isothiocyanate (FITC)-labeled Annexin V (Annexin V-FITC) (Promega Corporation, USA) and 5 µL of PI (Promega Corporation, USA) were added. The mixture was gently mixed and incubated in the dark at room temperature for 10 min then stained cells were analyzed using flow cytometry to test the levels of apoptotic cells (Becton Dickinson and Company, USA; FACS Calibur).

HCT-116 cells = test: MTT assay HCT-116; format: cell-based; settings: Homo sapiens, 24h of treatment, mean ± SD
Method: Details are given in Supplementary Materials and Methods. Using probability unit and weighted regression method to calculate the IC50 value of compounds.
Total cells in the logarithmic growth phase were collected, digested using 0.25% pancreatic enzymes, and then diluted into single-cell suspensions using phosphate-buffered solution (PBS). These cells were seeded into 96-well plates at 4× 10^3-5× 10^3 cells per well (100 µL per well) and then A549, H460, OVCAR-3, SGC7901, MDA-MB-231, HCT116 and HepG2 were cultured at 37°Cin an incubator containing 5% CO2. After cell complete attachment, 100 µL of different concentrations of compounds (0.625 μM, 1.25 μM, 2.5μM, 5 μM, 10 μM) were added to the cells after the nutrient solution in each well was discarded, while no compound except 0.1% DMSO was added to cells in the control group; at the same time, each concentration was set up to 5 wells. In addition, 5 wells in each 96-well plate only received 100 µL of nutrient solution as a blank control. The plates were taken out after the cells were incubated with compounds for 24 h, and 20 µL of MTT solution (5 mg/mL) (Wuhan Boster Biotechnology Limited Company, Wuhan, China; item No. AR1156) was added into all the wells. After another time of incubation for 4 h at 37 °C, the nutrient solution in each well was discarded slowly, and 150 µL of DMSO was added to each well. The plates were shaken on a shaking table for 20 min. When the crystals were fully dissolved, the blank wells were used to zero the plate reader. The optical density (OD) of each well was detected at 490 nm. The IC50 value was determined as the concentration of the inhibitor that caused 50% inhibition. Using probability unit and weighted regression method to calculate the IC50 value of compounds.

## O=C(Nc1cccc(Cl)c1)Nc1ccccc1NS(=O)(=O)c1c[nH]c(=O)[nH]c1=O [Compound L14e, N'-(3-chlorophenyl)-2-(2,4-dihydroxypyrimidine-5-sulfonamido)phenyl urea]
LO2 cell line
  SI (Selectivity index) LO2: 12.58
FVB mice; FVB mice, 40, 80, 160 mg/kg
  changes in body weight compared with control mice: minimal
  serum levels of AST, ALT, GLU and creatinine: within the reference ranges
  toxicity to mice (overall): minimal toxicity
FVB mice; mice
  histopathological changes in liver, lung, brain, and kidney (HE staining): no visible pathological changes
[1]; nominal 0.625 µM, 1h
  HPLC-UV Measure Concentration: 0.621 ± 0.005 µM
[1]; nominal 0.625 µM, 12h
  HPLC-UV Measure Concentration: 0.623 ± 0.001 µM
[1]; nominal 0.625 µM, 24h
  HPLC-UV Measure Concentration: 0.625 ± 0.002 µM
[1]; nominal 0.625 µM, 36h
  HPLC-UV Measure Concentration: 0.625 ± 0.001 µM
[1]; nominal 1.25 µM, 1h
  HPLC-UV Measure Concentration: 1.246 ± 0.005 µM
[1]; nominal 1.25 µM, 12h
  HPLC-UV Measure Concentration: 1.239 ± 0.003 µM
[1]; nominal 1.25 µM, 24h
  HPLC-UV Measure Concentration: 1.253 ± 0.007 µM
[1]; nominal 1.25 µM, 36h
  HPLC-UV Measure Concentration: 1.242 ± 0.009 µM
[1]; nominal 2.5 µM, 1h
  HPLC-UV Measure Concentration: 2.510 ± 0.020 µM
[1]; nominal 2.5 µM, 12h
  HPLC-UV Measure Concentration: 2.506 ± 0.021 µM
[1]; nominal 2.5 µM, 24h
  HPLC-UV Measure Concentration: 2.430 ± 0.002 µM
[1]; nominal 2.5 µM, 36h
  HPLC-UV Measure Concentration: 2.483 ± 0.050 µM
[1]; nominal 5 µM, 1h
  HPLC-UV Measure Concentration: 5.001 ± 0.010 µM
[1]; nominal 5 µM, 12h
  HPLC-UV Measure Concentration: 4.963 ± 0.005 µM
[1]; nominal 5 µM, 24h
  HPLC-UV Measure Concentration: 5.012 ± 0.023 µM
[1]; nominal 5 µM, 36h
  HPLC-UV Measure Concentration: 4.980 ± 0.020 µM
[1]; nominal 10 µM, 1h
  HPLC-UV Measure Concentration: 10.000 ± 0.049 µM
[1]; nominal 10 µM, 12h
  HPLC-UV Measure Concentration: 9.908 ± 0.100 µM
[1]; nominal 10 µM, 24h
  HPLC-UV Measure Concentration: 9.930 ± 0.100 µM
[1]; nominal 10 µM, 36h
  HPLC-UV Measure Concentration: 9.850 ± 0.150 µM
H460 cells; H460, 0.5 μM
  apoptotic rate: 6.4%
  early apoptosis rate (Q4, Annexin V [+] PI [−]): 3.9%
H460 cells; H460, 1.0 μM
  apoptotic rate: 21.8%
  early apoptosis rate (Q4, Annexin V [+] PI [−]): 15.1%
H460 cells; H460, 1.5 μM
  apoptotic rate: 24.4%
  early apoptosis rate (Q4, Annexin V [+] PI [−]): 17.3%
HCT-116 cells
  IC50: 1.98 ± 0.18 µM
